Test results: patent publication US8586611B2 (priority 2005, dated 2013)
Read-outs that look alike come from different tables or passages of the source.

Key:
Format in all cases: in vivo
[1] = system: Phytophthora infestans; assay: whole plant or invertebrate; conditions: for Test C disease rating (100 = 100% disease control, 0 = no disease control): tomato late blight; for pest or weed control at 40 ppm: Phytophthora infestans, in Solanum lycopersicum, 144 h, read-out: Test C disease rating (100 = 100% disease control, 0 = no disease control)
[2] = system: Plasmopara viticola; assay: Test B: grape downy mildew, spray 24 h after inoculation (disease rating, 100 = 100% disease control); conditions: for pest or weed control at 40 ppm: Plasmopara viticola, 144 h, read-out: Test B disease rating (100 = 100% disease control, 0 = no disease control)
From the text: (§1) The test compounds were first dissolved in acetone in an amount equal to 3% of the final volume and then suspended at the desired concentration (in ppm) in acetone and purified water (50/50 mix by volume) containing 250 ppm of the surfactant Trem® 014 (polyhydric alcohol esters). The resulting test suspensions were then used in tests A-E. Spraying a 200 ppm test suspension to the point of run-off on the test plants was the equivalent of a rate of 500 g/ha.
Grape seedlings were inoculated with a spore suspension of Plasmopara viticola (the causal agent of grape downy mildew) and incubated in a saturated atmosphere at 20° C. for 24 h. After a short drying period, the test suspension was sprayed to the point of run-off on the grape seedlings and then moved to a growth chamber at 20° C. for 5 days, after which the test units were placed back into a saturated atmosphere at 20° C. for 24 h. Upon removal, disease ratings were made.
(§2) Results for Tests A-F are given in Table A. In the table, a rating of 100 indicates 100% disease control and a rating of 0 indicates no disease control (relative to the controls). A dash (-) indicates no test results.

[3] = system: Erysiphe graminis f. sp. tritici; assay: Test E: wheat powdery mildew, spray the day before inoculation (disease rating, 100 = 100% disease control); conditions: for pest or weed control at 40 ppm: Blumeria graminis, topical, 168 h, read-out: Test E disease rating (100 = 100% disease control, 0 = no disease control)
From the text: as §1
The test suspension was sprayed to the point of run-off on wheat seedlings. The following day the seedlings were inoculated with a spore dust of Erysiphe graminis f. sp. tritici, (the causal agent of wheat powdery mildew) and incubated in a growth chamber at 20° C. for 7 days, after which disease ratings were made.
as §2

[4] = system: Phytophthora infestans; assay: whole plant or invertebrate; conditions: for Test D disease rating (100 = 100% disease control, 0 = no disease control): tomato late blight; for pest or weed control at 40 ppm: Phytophthora infestans, in Solanum lycopersicum, topical, 96 h, read-out: Test D disease rating (100 = 100% disease control, 0 = no disease control)
[5] = spray the day before inoculation, compounds without asterisk (not 40 or 10 ppm)
[6] = spray 24 h after inoculation, compounds without asterisk (not 40 or 10 ppm)
[7] = spray 17 h after inoculation, compounds without asterisk (not 40 or 10 ppm)
[8] = sprayed the day before inoculation, unmarked compounds (no asterisk, not 40 or 10 ppm)
[9] = sprayed 24 h after inoculation, unmarked compounds (no asterisk, not 40 or 10 ppm)
[10] = sprayed the day before inoculation, 7 days at 20° C., unmarked compounds (no asterisk, not 40 or 10 ppm)
[11] = sprayed 17 h after inoculation, unmarked compounds (no asterisk, not 40 or 10 ppm)
[12] = spray 24 h after inoculation, tested at 40 ppm
[13] = spray the day before inoculation, tested at 40 ppm
[14] = spray 17 h after inoculation, tested at 40 ppm
[15] = spray the day before inoculation, tested at 10 ppm
[16] = spray 24 h after inoculation, tested at 10 ppm
[17] = spray 17 h after inoculation, tested at 10 ppm

SMILES	Test C disease rating (100 = 100% disease control, 0 = no disease control) [1, 5] [%]	Test B disease rating (100 = 100% disease control, 0 = no disease control) [2, 6] [%]	Test E disease rating (100 = 100% disease control, 0 = no disease control) [3, 5] [%]	Test D disease rating (100 = 100% disease control, 0 = no disease control) [4, 7] [%]	further results
Cc1cc(C(F)(F)F)nn1CC(=O)N1CCC(c2cc(C(=O)N(C)[C@@H]3CCCc4ccccc43)on2)CC1 [compound 203]	100	94	0	99	–
CCOc1cccc(CC(=O)N2CCC(c3nc(C(=O)N(C)[C@H](C)c4ccccc4)cs3)CC2)c1 [compound 79]	77	82	0	0	–
COc1ccccc1CC(=O)N1CCN(c2nc(C(=O)N(C)[C@H](C)c3ccccc3)co2)CC1 [compound 53]	100	20	0	89	–
C[C@H](c1ccccc1)N(C)C(=O)c1csc(C2CCN(C(=O)Cc3cccs3)CC2)n1 [compound 88]	33	43	0	0	–
Cc1cc(C(F)(F)F)nn1CC(=O)N1CCC(c2nc(C(=O)N(C)C3CCCc4c(O)cccc43)cs2)CC1 (stereo not shown) [compound 189]	100	93	0	99	–
Cc1ccc(C)c(CC(=O)N2CCC(c3nc(C(=O)N(C)C4CCc5ccccc54)cs3)CC2)c1 (stereo not shown) [compound 100]	100	94	0	99	–
CCOc1ccccc1CC(=O)N1CCC(c2nc(C(=O)N(C)[C@H](C)c3ccccc3)cs2)CC1 [compound 78]	78	100	0	46	–
Cc1cc(C(F)(F)F)nn1CC(=O)N1CCN(c2nc(C(=O)N(C)[C@@H]3CCCc4ccccc43)cs2)CC1C (stereo partly shown) [compound 293]	–	–	–	–	Test C disease rating (100 = 100% disease control, 0 = no disease control) [1, 8]: 100; Test B disease rating (100 = 100% disease control, 0 = no disease control) [2, 9]: 100; Test E disease rating (100 = 100% disease control, 0 = no disease control) [3, 10]: 0; Test D disease rating (100 = 100% disease control, 0 = no disease control) [4, 11]: 99
Cc1cc(C(F)(F)F)nn1CC(=O)N1CCC(c2nc(C(=O)N(C)C3CCC(=O)c4ccccc43)cs2)CC1 (stereo not shown) [Compound 211, N-methyl-2-[1-[[5-methyl-3-(trifluoromethyl)-1H-pyrazol-1-yl]acetyl]-4-piperidinyl]-N-(1,2,3,4-tetrahydro-4-oxo-1-naphthalenyl)-4-thiazolecarboxamide]	–	–	–	–	pest or weed control at 40 ppm [1]: 100%; pest or weed control at 40 ppm [2, 12]: 99%; pest or weed control at 40 ppm [3, 13]: 0%; pest or weed control at 40 ppm [4]: 99%
Cc1cc(C(F)(F)F)nn1CC(=O)N1CCN(c2nc(C(=O)N(C)[C@@H]3CCCc4ccccc43)ns2)CC1 [compound 224]	–	–	–	–	Test C disease rating (100 = 100% disease control, 0 = no disease control) [1, 13]: 100%; Test B disease rating (100 = 100% disease control, 0 = no disease control) [2, 12]: 93%; Test E disease rating (100 = 100% disease control, 0 = no disease control) [3, 13]: 0%; Test D disease rating (100 = 100% disease control, 0 = no disease control) [4, 14]: 99%
Cc1cc(C(F)(F)F)nn1CC(=O)N1CCC(c2nc(C(=O)N(C)C(C)(C)c3ccccc3)cs2)CC1 [compound 237]	99	81	62	99	–
CCCCC(c1ccccc1)N(C)C(=O)c1csc(C2CCN(C(=O)Cc3cc(C)ccc3C)CC2)n1 (stereo not shown) [compound 85]	99	99	32	9	–
Cc1ccccc1C(C)N(C)C(=O)c1csc(C2CCN(C(=O)Cn3nc(C(F)(F)F)cc3C)CC2)n1 (stereo not shown) [compound 243]	–	–	–	–	Test C disease rating (100 = 100% disease control, 0 = no disease control) [1, 13]: 86%; Test B disease rating (100 = 100% disease control, 0 = no disease control) [2, 12]: 91%; Test E disease rating (100 = 100% disease control, 0 = no disease control) [3, 13]: 0%; Test D disease rating (100 = 100% disease control, 0 = no disease control) [4, 14]: 82%
Cc1cccc(CC(=O)N2CCC(c3nc(C(=O)N(C)C(C)c4ncc(Cl)cc4Cl)cs3)CC2)c1 (stereo not shown) [compound 61]	69	2	0	0	–
Cc1cc(C(F)(F)F)nn1CC(=O)N1CCC(c2nc(C(=O)N3CCC4CCCCC4C3)cs2)CC1 (stereo not shown) [compound 299]	–	–	–	–	Test C disease rating (100 = 100% disease control, 0 = no disease control) [1, 8]: 99; Test B disease rating (100 = 100% disease control, 0 = no disease control) [2, 9]: 83; Test E disease rating (100 = 100% disease control, 0 = no disease control) [3, 10]: 0; Test D disease rating (100 = 100% disease control, 0 = no disease control) [4, 11]: 96
Cc1cc(C(F)(F)F)nn1CC(=O)N1CCC(n2cc(C(=O)N(C)[C@@H]3CCCc4ccccc43)cn2)CC1 [Compound 233, N-methyl-1-[1-[[5-methyl-3-(trifluoromethyl)-1H-pyrazol-1-yl]acetyl]-4-piperidinyl]-N-[(1R)-1,2,3,4-tetrahydro-1-naphthalenyl]-1H-pyrazole-4-carboxamide]	–	–	–	–	pest or weed control at 40 ppm [1]: 100%; pest or weed control at 40 ppm [2, 12]: 99%; pest or weed control at 40 ppm [3, 13]: 0%; pest or weed control at 40 ppm [4]: 99%
Cc1cc(C(F)(F)F)nn1CC(=O)N1CCC(c2cc(C(=O)N(C)[C@@H]3CCCc4ccccc43)no2)CC1 [compound 202]	100	97	0	99	–
Cc1ccc(C)c(CC(=O)N2CCC(c3nc(C(=O)N(C)C(C)c4cc(C)oc4C)cs3)CC2)c1 (stereo not shown) [compound 113]	97	0	0	31	–
Cc1cc(C(F)(F)F)nn1CC(=O)N1CCC(c2nc(C(=O)N(C)C3CCOc4ccccc43)cs2)CC1 (stereo not shown) [compound 179]	–	–	–	–	Test C disease rating (100 = 100% disease control, 0 = no disease control) [1, 15]: 100%; Test B disease rating (100 = 100% disease control, 0 = no disease control) [2, 16]: 96%; Test E disease rating (100 = 100% disease control, 0 = no disease control) [3, 15]: 0%; Test D disease rating (100 = 100% disease control, 0 = no disease control) [4, 17]: 87%
CC[C@H](c1ccccc1)N(C)C(=O)c1csc(C2CCN(C(=O)Cn3nc(C)cc3C)CC2)n1 [compound 118]	100	99	0	99	–
Cc1cccc(CC(=O)N2CCC(c3nc(C(=O)N(C)Cc4ccccn4)cs3)CC2)c1 [compound 165]	14	11	0	0	–
Cc1cc(C(F)(F)F)nn1CC(=O)N1CCC(c2nc(C(=O)N(C)C3CCCCC3c3ccccc3)cs2)CC1 (stereo not shown) [compound 186]	–	–	–	–	Test C disease rating (100 = 100% disease control, 0 = no disease control) [1, 15]: 97%; Test B disease rating (100 = 100% disease control, 0 = no disease control) [2, 16]: 0%; Test E disease rating (100 = 100% disease control, 0 = no disease control) [3, 15]: 0%; Test D disease rating (100 = 100% disease control, 0 = no disease control) [4, 17]: 58%
